Earlier results on two compounds are cited in patent US10570116B2, “1,4-dicarbonyl-piperidyl derivatives” (Merck Patent GmbH, priority 2015, dated 2020).

Each structure is given as a SMILES string.

Data set [1] deals with DLD-1-cancer cells. The following applies: Huang et al., 2009; cited from earlier work.
Data set [2] deals with Tankyrase. The settings on record: prior art value; read-out: cellular assay: EC50; cited from earlier work.

For the compound `Oc1nc(-c2ccc(C(F)(F)F)cc2)nc2c1CSCC2` [XAV939], the “growth of DLD-1-cancer cells” value in data set [1] is “inhibits growth”.
What is called EC50 is the concentration needed to bring the measured effect to its halfway point. In the case of `COc1ccc(C(=O)C2CCN(CC(=O)N(Cc3nc4c(c(=O)[nH]3)COCC4)CC3CC3)CC2)cc1` [benzoylpiperidine derivative], in data set [2], the EC50 is 35 nM.
